Test results: patent US12281117B2, “Small molecule immune agonists and immune targeting compounds and application thereof” (SHENZHEN UNIVERSITY, priority 2018, dated 2025)

How the values were obtained:
spleen lymphocytes = assay: Immunostimulatory effects on spleen lymphocytes, cytokines in supernatant by ELISA; type: cell-based, BALB/c or C57BL/6 mouse; details: FIG. 59 and FIG. 60; compared with JQ1 plus SZU-101
Protocol: Effect Example 1: Detection of the Immunostimulatory Effects of the SZU-Series Small-Molecule Immune Agonists and Novel Immune Targeted Compounds of the Present Invention on Spleen Lymphocytes
1. Extraction of Spleen Lymphocytes
(1) BALB/c or C57BL/6 mouse spleens were collected, ground in a small dish containing Mouse Lymphocyte Separation Medium, and filtered through a filter membrane (with a pore size of […]) to obtain a cell suspension, which was treated by centrifugation to obtain lymphocytes. The isolated lymphocytes were placed in a 15 mL centrifuge tube, into which 10 mL of 1640 complete medium was added. The mixture was mixed uniformly and centrifuged at 250 g for 10 minutes. The supernatant was discarded.
(2) The cells were re-suspended with 1 mL of erythrocyte lysate. After 1 minute of lysis, 4 mL of 1640 complete medium was added for termination. The tube was centrifuged at 1,000 rpm for 5 minutes. The supernatant was discarded.
(3) The cells were re-suspended with 2 mL of 1640 complete medium, counted, and then seeded into 24-well plates at a density of 1×10^6 cells per well.
2. Preparation of the Samples
The spleen lymphocytes seeded into the 24-well plates were stimulated with different concentrations of the SZU-series small-molecule immune agonists and novel immune targeted compounds. The 24-well plate was transferred into an incubator. […]

[1] = system: CD274 (PD-L1) on B16 cells; assay: Inhibitory activity against CD274 (PD-L1) on B16 cells; type: cell-based; details: FIG. 61

COCCOc1nc(N)c2nc(O)n(Cc3ccc(CNC(=O)CCC(=O)NCCOCCOCCOCCNC(=O)C[C@@H]4N=C(c5ccc(Cl)cc5)c5c(sc(C)c5C)-n5c(C)nnc54)cc3)c2n1 [SZU-119] was tested, and the “activity of TLR7 agonist for stimulating immune cytokine” value (spleen lymphocytes) was “retains the activity of TLR7 agonist” and the “inhibitory activity against CD274 (PD-L1) on B16 cells” value [1] was “retains the inhibitory activity of JQ1”.
